# Assay results reported in BindingDB's records for patent US10023539 (Bayer Pharma Aktiengesellschaft, 2018).
# Molecular target: N-lysine methyltransferase SMYD2 (Homo sapiens, UniProt Q9NRG4)
# Assay: Scintillation Proximity Assay (SPA) for Detection of SMYD2 Enzymatic Inhibition
# Conditions: pH 9
# Method: To this end, 100-fold concentrated compound solutions (in DMSO) were previously prepared by serial dilution (1:3.4) of 2 mM stocks in a clear low volume 384-well source microtiter plate (Greiner Bio-One), from which 50 nl of compound solutions were transferred into a white low volume test microtiter plate from the same supplier. […] The samples were then incubated for 15 min at 22° C. to allow pre-equilibration of the putative enzyme-inhibitor complexes before the start of the methylation reaction, which was initiated by the addition of 2.5 μl 2-fold concentrated solution (in assay buffer) of titrated S-Adenosyl-L-Methionine (3H-SAM, Perkin Elmer, final concentration: 60 nM) and p53 Peptide substrate (final concentration: 1.0 μM). The resulting mixture (5 μl final volume) was shortly centrifuged (2 min., 1500 rpm) and incubated at 22° C. during 30 min.
# Sequence of N-lysine methyltransferase SMYD2 (Q9NRG4 whole entry): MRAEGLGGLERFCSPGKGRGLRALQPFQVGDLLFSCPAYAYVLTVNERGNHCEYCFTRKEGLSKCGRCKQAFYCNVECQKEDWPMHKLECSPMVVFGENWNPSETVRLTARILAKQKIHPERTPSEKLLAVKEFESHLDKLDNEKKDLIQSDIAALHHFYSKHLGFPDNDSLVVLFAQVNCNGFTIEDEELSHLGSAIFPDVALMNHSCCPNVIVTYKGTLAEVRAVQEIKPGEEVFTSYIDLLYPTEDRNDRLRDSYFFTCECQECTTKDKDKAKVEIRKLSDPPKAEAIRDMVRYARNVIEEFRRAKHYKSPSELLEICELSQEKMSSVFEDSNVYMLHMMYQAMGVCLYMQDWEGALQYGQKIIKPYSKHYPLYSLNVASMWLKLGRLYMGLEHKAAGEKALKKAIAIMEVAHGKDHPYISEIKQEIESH
compound,measurement,value
"CCN(C(=O)[C@@H](C)NC)C1CN(/C(=N\C#N)Nc2cccc(OC(F)F)c2)N=C1c1ccc(Cl)c(C)c1 (stereo partly specified) [US10023539, Example 37]",IC50,231 nM
